Experimental data as given in the NIST ThermoML archive (doi:10.1016/j.tca.2011.08.002).

Key:
[1] = refractive index (Na D-line) (dimensionless); xn = mol fraction of the nth substance listed; conditions: 101 kPa, Liquid, Standard Abbe refractometry
[2] = xn = mol fraction of the nth substance listed; conditions: 101 kPa, Liquid, Vibrating tube method

C1CCC(NC2CCCCC2)CC1 [N-cyclohexylcyclohexanamine] + CCCCCO
Conditions | mass density, [2] [kg/m3] | refractive index, [1]
288.15 K, x2 = 0 | 915.498 | 1.48636
288.15 K, x2 = 0.0525 | 913.936 | 1.48486
288.15 K, x2 = 0.1 | 912.365 | 1.48356
288.15 K, x2 = 0.2006 | 908.415 | 1.47999
288.15 K, x2 = 0.2999 | 903.722 | 1.47587
288.15 K, x2 = 0.3985 | 898.063 | 1.47109
288.15 K, x2 = 0.5001 | 890.925 | 1.46523
288.15 K, x2 = 0.5999 | 882.166 | 1.45834
288.15 K, x2 = 0.6992 | 871.226 | 1.45002
288.15 K, x2 = 0.7993 | 857.281 | 1.43976
288.15 K, x2 = 0.8997 | 839.76 | 1.42718
288.15 K, x2 = 0.9495 | 829.611 | 1.41998
293.15 K, x2 = 0 | 911.705 | 1.48416
293.15 K, x2 = 0.0525 | 910.13 | 1.48266
293.15 K, x2 = 0.1 | 908.547 | 1.48135
293.15 K, x2 = 0.2006 | 904.561 | 1.47776
293.15 K, x2 = 0.2999 | 899.824 | 1.47364
293.15 K, x2 = 0.3985 | 894.123 | 1.46884
293.15 K, x2 = 0.5001 | 886.952 | 1.46298
293.15 K, x2 = 0.5999 | 878.178 | 1.4561
293.15 K, x2 = 0.6992 | 867.264 | 1.4478
293.15 K, x2 = 0.7993 | 853.399 | 1.4376
293.15 K, x2 = 0.8997 | 835.998 | 1.4251
293.15 K, x2 = 0.9495 | 825.915 | 1.41796
298.15 K, x2 = 0 | 907.923 | 1.48198
298.15 K, x2 = 0.0525 | 906.333 | 1.48047
298.15 K, x2 = 0.1 | 904.733 | 1.47916
298.15 K, x2 = 0.2006 | 900.708 | 1.47554
298.15 K, x2 = 0.2999 | 895.929 | 1.47141
298.15 K, x2 = 0.3985 | 890.185 | 1.4666
298.15 K, x2 = 0.5001 | 882.98 | 1.46073
298.15 K, x2 = 0.5999 | 874.191 | 1.45386
298.15 K, x2 = 0.6992 | 863.3 | 1.44555
298.15 K, x2 = 0.7993 | 849.507 | 1.43542
298.15 K, x2 = 0.8997 | 832.22 | 1.42299
298.15 K, x2 = 0.9495 | 822.199 | 1.41591
303.15 K, x2 = 0 | 904.144 | 1.47978
303.15 K, x2 = 0.0525 | 902.538 | 1.47828
303.15 K, x2 = 0.1 | 900.921 | 1.47694
303.15 K, x2 = 0.2006 | 896.855 | 1.47333
303.15 K, x2 = 0.2999 | 892.033 | 1.46918
303.15 K, x2 = 0.3985 | 886.249 | 1.46437
303.15 K, x2 = 0.5001 | 879.007 | 1.4585
303.15 K, x2 = 0.5999 | 870.203 | 1.45162
303.15 K, x2 = 0.6992 | 859.33 | 1.44334
303.15 K, x2 = 0.7993 | 845.602 | 1.43327
303.15 K, x2 = 0.8997 | 828.423 | 1.4209
303.15 K, x2 = 0.9495 | 818.461 | 1.41383
308.15 K, x2 = 0 | 900.372 | 1.47761
308.15 K, x2 = 0.0525 | 898.746 | 1.47608
308.15 K, x2 = 0.1 | 897.111 | 1.47475
308.15 K, x2 = 0.2006 | 893.001 | 1.47113
308.15 K, x2 = 0.2999 | 888.135 | 1.46696
308.15 K, x2 = 0.3985 | 882.309 | 1.46214
308.15 K, x2 = 0.5001 | 875.031 | 1.45627
308.15 K, x2 = 0.5999 | 866.208 | 1.44937
308.15 K, x2 = 0.6992 | 855.348 | 1.44113
308.15 K, x2 = 0.7993 | 841.678 | 1.43108
308.15 K, x2 = 0.8997 | 824.599 | 1.41881
308.15 K, x2 = 0.9495 | 814.694 | 1.41175
313.15 K, x2 = 0 | 896.608 | 1.47562
313.15 K, x2 = 0.0525 | 894.957 | 1.47406
313.15 K, x2 = 0.1 | 893.301 | 1.47258
313.15 K, x2 = 0.2006 | 889.146 | 1.4689
313.15 K, x2 = 0.2999 | 884.235 | 1.46472
313.15 K, x2 = 0.3985 | 878.364 | 1.45985
313.15 K, x2 = 0.5001 | 871.049 | 1.45396
313.15 K, x2 = 0.5999 | 862.207 | 1.44702
313.15 K, x2 = 0.6992 | 851.354 | 1.43878
313.15 K, x2 = 0.7993 | 837.734 | 1.42876
313.15 K, x2 = 0.8997 | 820.749 | 1.41655
313.15 K, x2 = 0.9495 | 810.896 | 1.40963
318.15 K, x2 = 0 | 892.847 | 1.47347
318.15 K, x2 = 0.0525 | 891.168 | 1.4719
318.15 K, x2 = 0.1 | 889.492 | 1.47041
318.15 K, x2 = 0.2006 | 885.287 | 1.46671
318.15 K, x2 = 0.2999 | 880.327 | 1.46251
318.15 K, x2 = 0.3985 | 874.411 | 1.45762
318.15 K, x2 = 0.5001 | 867.056 | 1.45172
318.15 K, x2 = 0.5999 | 858.189 | 1.4448
318.15 K, x2 = 0.6992 | 847.34 | 1.43659
318.15 K, x2 = 0.7993 | 833.766 | 1.42658
318.15 K, x2 = 0.8997 | 816.864 | 1.41445
318.15 K, x2 = 0.9495 | 807.06 | 1.40753
323.15 K, x2 = 0 | 889.089 | 1.47134
323.15 K, x2 = 0.0525 | 887.381 | 1.46975
323.15 K, x2 = 0.1 | 885.679 | 1.46826
323.15 K, x2 = 0.2006 | 881.423 | 1.46457
323.15 K, x2 = 0.2999 | 876.412 | 1.46034
323.15 K, x2 = 0.3985 | 870.446 | 1.45547
323.15 K, x2 = 0.5001 | 863.048 | 1.44954
323.15 K, x2 = 0.5999 | 854.154 | 1.44263
323.15 K, x2 = 0.6992 | 843.305 | 1.43439
323.15 K, x2 = 0.7993 | 829.767 | 1.42439
323.15 K, x2 = 0.8997 | 812.943 | 1.4123
323.15 K, x2 = 0.9495 | 803.186 | 1.40539
